Measured values from patent US20100047308A1, “Production methods of virus inactivated and cell-free body implant” (priority 2006, published 2010).

System: L-929 cells (fibroblasts)
Experiment: Cytotoxicity of graft exudates according to USP <87> (cell lysis, inhibition of cell growth)
Details: 24 hours, USP <87> qualitative method
Experimental: The acellular dermal implants obtained after treatment with the solvent/detergent were powdered and mixed with 1 ml of distilled water for every 300 mg of the powder. To 4 g of the mixed sample was added 20 ml of physiological saline, followed by extraction at 37° C. for 72 hours. Tests were conducted within 24 hours after the completion of the extraction. The extract was mixed at a volume ratio of 1:2 with a culture medium (MEM). L-929 cells (fibroblasts), which are usually used in inhibition tests because of their high susceptibility to chemicals, were plated at a density of 10^5 cells per ml before culturing. […] This experiment was repeated three times while cytotoxicity was evaluated according to the qualitative method of USP <87>.
In order to examine whether the solvent/detergent solution remaining in the acellular dermal implants had toxic effects on cells of the patient, the exudates from the grafts were assayed for cytotoxicity.

SMILES: C[S+](C)[O-] [Positive Control, DMSO]
- Exudate Grades (cytotoxicity): 4
